The test concerns the target T1, recombinant human GS (GSH synthetase, glutathione synthetase) (Homo sapiens, UniProt P48637).
T1 construct: gene GSS; commercial recombinant protein (Abcam, Cambridge, UK), labelled on amines with BLUE-NHS dye
T1 sequence (P48637 2-474): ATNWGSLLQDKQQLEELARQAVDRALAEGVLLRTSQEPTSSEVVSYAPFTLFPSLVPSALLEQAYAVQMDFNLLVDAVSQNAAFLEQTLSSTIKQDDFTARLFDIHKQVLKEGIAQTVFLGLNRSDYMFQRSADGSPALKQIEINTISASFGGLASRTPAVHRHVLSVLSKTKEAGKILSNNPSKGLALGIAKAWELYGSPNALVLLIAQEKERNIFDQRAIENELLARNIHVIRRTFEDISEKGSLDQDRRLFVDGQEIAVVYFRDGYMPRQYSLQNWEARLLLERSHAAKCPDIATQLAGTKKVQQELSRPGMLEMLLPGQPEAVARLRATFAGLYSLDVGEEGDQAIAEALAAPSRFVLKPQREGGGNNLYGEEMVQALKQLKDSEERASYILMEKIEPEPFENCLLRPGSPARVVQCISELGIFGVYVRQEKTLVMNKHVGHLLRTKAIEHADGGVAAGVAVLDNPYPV
In words: microscale thermophoresis, BLUE-NHS labelled protein. To be noted: read-out: equilibrium binding constant. (In general: Microscale thermophoresis detects binding through changes in fluorescence in a small temperature gradient.)

Consider `O=C(Nc1ccc([N+](=O)[O-])cc1Cl)c1cc(Cl)ccc1O` [niclosamide], for which the Kd was determined as 5.64 µM.
